Active and inactive are the calls of the source. The calls are words filed in the database; no cut-off is given here.
test system: not listed separately; assay: (§1) Cytotoxicity against human MON cells after 3 days by MTS assay; format: functional, cell-based; details: Homo sapiens, MON, 72 h; read-out: IC50

| Structure (SMILES) | IC50 |
| --- | --- |
| CC1=C(/C=C/C(C)=C/C=C/C(C)=C/C(=O)Nc2ccc(O)c(Cl)c2)C(C)(C)CCC1 | 12.5 µM |
| CC1=C(/C=C/C(C)=C/C=C/C(C)=C/C(=O)O)C(C)(C)CCC1 [TRETINOIN] | 100 µM |
| CC1=C(/C=C/C(C)=C/C=C/C(C)=C/C(=O)Nc2ccc(CCO)cc2)C(C)(C)CCC1 | > 50 µM |
| CC1=C(/C=C/C(C)=C/C=C/C(C)=C/C(=O)Nc2ccc(O)c(I)c2)C(C)(C)CCC1 | 3 µM |
| CC1=C(/C=C/C(C)=C/C=C/C(C)=C/C(=O)Nc2ccc(O)c(F)c2)C(C)(C)CCC1 | 8 µM |
| CC1=C(/C=C/C(C)=C/C=C/C(C)=C/C(=O)Nc2ccc(CO)cc2)C(C)(C)CCC1 | 25 µM |
| CC1=C(/C=C/C(C)=C/C=C/C(C)=C/C(=O)Nc2ccc(O)cc2O)C(C)(C)CCC1 | 8 µM |
| CC1=C(/C=C/C(C)=C/C=C/C(C)=C/C(=O)Nc2ccc(F)cc2)C(C)(C)CCC1 | 150 µM |
| CC1=C(/C=C/C(C)=C/C=C/C(C)=C/C(=O)Nc2ccc(Cl)cc2)C(C)(C)CCC1 | > 200 µM |
| CC1=C(/C=C/C(C)=C/C=C/C(C)=C/C(=O)Nc2ccc([N+](=O)[O-])cc2)C(C)(C)CCC1 | > 200 µM |
| CC1=C(/C=C/C(C)=C/C=C/C(C)=C/C(=O)Nc2ccc(Br)cc2)C(C)(C)CCC1 | 150 µM |

same assay, conditions: mon

| Structure (SMILES) | IC50 |
| --- | --- |
| COc1ccc(NC(=O)/C=C(C)/C=C/C=C(C)/C=C/C2=C(C)CCCC2(C)C)cc1 | Not Active |

same assay, conditions: mon; read-out: IC50

| Structure (SMILES) | IC50 |
| --- | --- |
| CC1=C(/C=C/C(C)=C/C=C/C(C)=C/C(=O)Nc2ccc(O)cc2)C(C)(C)CCC1 (stereo in doubt; 5g) [FENRETINIDE] | 19 µM |
| CC1=C(/C=C/C(C)=C/C=C/C(C)=C/C(=O)Nc2ccc(O)cc2)C(C)(C)CCC1 (stereo in doubt) [FENRETINIDE] | 9 µM |

test system: MON; assay: as §1; format: functional, cell-based; details: not given

| Structure (SMILES) | Activity |
| --- | --- |
| CC1=C(/C=C/C(C)=C/C=C/C(C)=C/C(=O)Nc2ccc(O)c([N+](=O)[O-])c2)C(C)(C)CCC1 | inactive |
| CC1=C(/C=C/C(C)=C/C=C/C(C)=C/C(=O)Nc2ccc(I)cc2)C(C)(C)CCC1 | inactive |
